# Activity calls are given as the source filed them. No cut-off for these calls is given here.
# How the values were obtained:
# [1] = molecular target: Cyclin-dependent kinase 7 (Homo sapiens, UniProt P50613); assay: Inhibition of CDK7 (unknown origin) assessed as phosphorylation of ULight 4EBP1 peptide substrate measured after 2 hrs by FRET-based LANCE Ultra KinSelect assay
# [2] = molecular target: Cyclin-dependent kinase 2 (Homo sapiens, UniProt P24941); assay: Inhibition of CDK2 (unknown origin) assessed as phosphorylation of ULight 4EBP1 peptide substrate measured after 2 hrs by FRET-based LANCE Ultra KinSelect assay
# [3] = molecular target: Cyclin-dependent kinase 1 (Homo sapiens, UniProt P06493); assay: Inhibition of CDK1 (unknown origin)
# Sequence of Cyclin-dependent kinase 1 (P06493 whole entry): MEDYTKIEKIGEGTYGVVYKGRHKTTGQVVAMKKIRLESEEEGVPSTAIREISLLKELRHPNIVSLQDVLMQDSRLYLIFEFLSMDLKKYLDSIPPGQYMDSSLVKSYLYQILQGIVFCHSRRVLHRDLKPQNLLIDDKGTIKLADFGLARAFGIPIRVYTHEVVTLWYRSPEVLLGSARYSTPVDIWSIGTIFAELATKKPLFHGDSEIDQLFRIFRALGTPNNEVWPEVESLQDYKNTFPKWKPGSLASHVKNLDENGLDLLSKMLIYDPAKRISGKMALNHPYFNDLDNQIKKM
# [4] = molecular target: Cyclin-dependent kinase 5 (Homo sapiens, UniProt Q00535); assay: Inhibition of CDK5 (unknown origin)
# [5] = molecular target: Cyclin-dependent kinase 6 (Homo sapiens, UniProt Q00534); assay: Inhibition of CDK6 (unknown origin)
# [6] = molecular target: Cyclin-dependent kinase 12 (Homo sapiens, UniProt Q9NYV4); assay: Inhibition of CDK12 (unknown origin)
# [7] = molecular target: Mitogen-activated protein kinase kinase kinase 7 (Homo sapiens) (UniProt O43318); assay: Inhibition of human partial length TAK1 (M1/Q303) expressed in mammalian system at 1 uM by KINOMEscan analysis relative to control
# Sequence of Mitogen-activated protein kinase kinase kinase 7 (Homo sapiens) (O43318 whole entry): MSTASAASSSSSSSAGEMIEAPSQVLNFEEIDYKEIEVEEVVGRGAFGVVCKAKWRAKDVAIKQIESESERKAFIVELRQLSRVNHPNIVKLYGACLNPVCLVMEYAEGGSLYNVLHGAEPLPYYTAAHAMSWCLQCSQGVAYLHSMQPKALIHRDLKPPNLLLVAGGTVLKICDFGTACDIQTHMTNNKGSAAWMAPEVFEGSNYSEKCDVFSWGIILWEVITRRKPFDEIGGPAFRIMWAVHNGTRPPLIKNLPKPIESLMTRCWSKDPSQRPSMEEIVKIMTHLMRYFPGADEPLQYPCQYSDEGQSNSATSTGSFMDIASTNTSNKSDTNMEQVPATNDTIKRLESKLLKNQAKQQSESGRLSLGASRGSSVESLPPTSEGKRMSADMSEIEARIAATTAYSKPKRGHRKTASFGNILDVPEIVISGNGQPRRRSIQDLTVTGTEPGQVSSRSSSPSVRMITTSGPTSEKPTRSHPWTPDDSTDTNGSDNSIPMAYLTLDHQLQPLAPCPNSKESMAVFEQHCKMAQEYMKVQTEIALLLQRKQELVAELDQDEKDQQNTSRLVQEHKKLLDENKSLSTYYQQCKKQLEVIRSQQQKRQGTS
# [8] = molecular target: Aurora kinase A (Homo sapiens) (UniProt O14965); assay: Inhibition of human partial length Aurora-A (E122/K401) expressed in mammalian system at 1 uM by KINOMEscan analysis relative to control
# [9] = molecular target: Tyrosine-protein kinase JAK2 (Homo sapiens) (UniProt O60674); assay: Inhibition of human partial length wild type JAK2 (A829/G1132) expressed in mammalian system at 1 uM by KINOMEscan analysis relative to control
# [10] = molecular target: Calcium/calmodulin-dependent protein kinase type 1 (Homo sapiens) (UniProt Q14012); assay: Inhibition of human partial length wild type CaMKI expressed in bacterial system at 1 uM by KINOMEscan analysis relative to control
# [11] = molecular target: Interleukin-1 receptor-associated kinase 4 (Homo sapiens) (UniProt Q9NWZ3); assay: Inhibition of human partial length wild type IRAK4 expressed in mammalian system at 1 uM by KINOMEscan analysis relative to control
# [12] = molecular target: Serine/threonine-protein kinase 10 (Homo sapiens) (UniProt O94804); assay: Inhibition of human partial length wild type LOK (E16/V314) expressed in bacterial system at 1 uM by KINOMEscan analysis relative to control
# Sequence of Serine/threonine-protein kinase 10 (Homo sapiens) (O94804 whole entry, looked up): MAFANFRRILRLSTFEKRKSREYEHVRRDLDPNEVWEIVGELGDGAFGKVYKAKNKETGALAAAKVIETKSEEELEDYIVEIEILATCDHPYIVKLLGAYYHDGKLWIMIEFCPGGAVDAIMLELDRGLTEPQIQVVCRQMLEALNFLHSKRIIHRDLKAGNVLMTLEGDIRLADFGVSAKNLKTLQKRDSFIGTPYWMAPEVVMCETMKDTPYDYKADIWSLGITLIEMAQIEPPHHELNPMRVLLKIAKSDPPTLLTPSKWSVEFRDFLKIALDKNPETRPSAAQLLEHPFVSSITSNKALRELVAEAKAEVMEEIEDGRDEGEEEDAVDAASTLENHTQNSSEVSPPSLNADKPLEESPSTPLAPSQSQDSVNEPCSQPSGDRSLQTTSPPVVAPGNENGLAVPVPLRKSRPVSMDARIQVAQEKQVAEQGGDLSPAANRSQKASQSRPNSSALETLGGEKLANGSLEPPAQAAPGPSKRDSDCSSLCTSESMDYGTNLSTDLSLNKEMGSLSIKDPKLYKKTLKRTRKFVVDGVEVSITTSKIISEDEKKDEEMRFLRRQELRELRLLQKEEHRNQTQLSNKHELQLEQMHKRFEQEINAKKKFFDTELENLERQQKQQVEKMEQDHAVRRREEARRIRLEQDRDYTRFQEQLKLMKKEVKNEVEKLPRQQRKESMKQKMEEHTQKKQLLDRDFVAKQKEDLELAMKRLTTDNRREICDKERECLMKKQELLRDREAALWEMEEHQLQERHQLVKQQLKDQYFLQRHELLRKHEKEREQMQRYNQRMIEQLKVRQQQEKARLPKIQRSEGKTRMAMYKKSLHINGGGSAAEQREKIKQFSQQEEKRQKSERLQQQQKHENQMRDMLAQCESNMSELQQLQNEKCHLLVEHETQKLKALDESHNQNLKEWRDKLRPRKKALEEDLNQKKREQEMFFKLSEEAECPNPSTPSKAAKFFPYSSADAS
# [13] = molecular target: MAP kinase-activated protein kinase 2 (Homo sapiens) (UniProt P49137); assay: Inhibition of human partial length wild type MAPKAP-K2 expressed in bacterial system at 1 uM by KINOMEscan analysis relative to control
# Sequence of MAP kinase-activated protein kinase 2 (Homo sapiens) (P49137 whole entry, looked up): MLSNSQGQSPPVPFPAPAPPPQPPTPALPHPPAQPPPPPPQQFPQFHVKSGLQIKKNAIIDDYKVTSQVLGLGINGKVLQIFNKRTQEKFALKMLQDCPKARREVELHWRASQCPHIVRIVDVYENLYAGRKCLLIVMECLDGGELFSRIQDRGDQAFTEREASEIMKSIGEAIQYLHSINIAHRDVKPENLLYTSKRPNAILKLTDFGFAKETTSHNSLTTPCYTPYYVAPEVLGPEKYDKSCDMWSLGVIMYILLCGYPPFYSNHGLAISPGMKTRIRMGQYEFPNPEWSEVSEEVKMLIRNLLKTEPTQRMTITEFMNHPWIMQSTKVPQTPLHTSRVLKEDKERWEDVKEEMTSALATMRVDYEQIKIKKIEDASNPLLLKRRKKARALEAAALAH
# [14] = molecular target: Mitogen-activated protein kinase kinase kinase 9 (Homo sapiens) (UniProt P80192); assay: Inhibition of human partial length wild type MLK1 expressed in bacterial system at 1 uM by KINOMEscan analysis relative to control
# [15] = molecular target: Serine/threonine-protein kinase mTOR (Homo sapiens) (UniProt P42345); assay: Inhibition of human partial length wild type mTOR (L1382/W2549) expressed in mammalian system at 1 uM by KINOMEscan analysis relative to control
# [16] = molecular target: Serine/threonine-protein kinase Nek2 (Homo sapiens) (UniProt P51955); assay: Inhibition of human partial length wild type NEK2 expressed in bacterial system at 1 uM by KINOMEscan analysis relative to control
# [17] = molecular target: Serine/threonine-protein kinase PAK 2 (Homo sapiens) (UniProt Q13177); assay: Inhibition of human partial length wild type PAK2 (P151/R525) expressed in bacterial system at 1 uM by KINOMEscan analysis relative to control
# Sequence of Serine/threonine-protein kinase PAK 2 (Homo sapiens) (Q13177 whole entry): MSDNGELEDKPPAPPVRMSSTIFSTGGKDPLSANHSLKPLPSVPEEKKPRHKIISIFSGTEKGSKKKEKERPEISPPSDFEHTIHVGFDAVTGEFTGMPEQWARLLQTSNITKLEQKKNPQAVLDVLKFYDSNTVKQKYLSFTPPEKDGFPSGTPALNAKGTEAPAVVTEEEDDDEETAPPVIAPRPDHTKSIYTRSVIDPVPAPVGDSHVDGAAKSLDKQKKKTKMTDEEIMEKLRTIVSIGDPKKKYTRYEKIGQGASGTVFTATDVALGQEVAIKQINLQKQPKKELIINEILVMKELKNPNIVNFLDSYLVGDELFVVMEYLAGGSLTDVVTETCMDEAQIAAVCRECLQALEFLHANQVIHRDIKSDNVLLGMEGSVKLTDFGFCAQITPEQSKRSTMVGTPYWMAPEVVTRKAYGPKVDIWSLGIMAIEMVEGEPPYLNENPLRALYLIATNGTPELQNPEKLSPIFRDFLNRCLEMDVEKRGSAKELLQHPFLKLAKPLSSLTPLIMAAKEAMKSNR
# [18] = molecular target: Platelet-derived growth factor receptor beta (Homo sapiens) (UniProt P09619); assay: Inhibition of human partial length wild type PDGFRbeta V582/Y1009 expressed in bacterial system at 1 uM by KINOMEscan analysis relative to control
# [19] = molecular target: cAMP-dependent protein kinase catalytic subunit alpha (Homo sapiens) (UniProt P17612); assay: Inhibition of human recombinant PKA expressed in Escherichia coli at 1 uM by KINOMEscan analysis relative to control
# [20] = molecular target: RAC-alpha serine/threonine-protein kinase (Homo sapiens) (UniProt P31749); assay: Inhibition of PKBalpha (unknown origin) at 1 uM relative to control
# Homo sapiens = species on record: Homo sapiens; assay: Inhibition of human partial length wild type PRAK (M1/R415) expressed in mammalian system at 1 uM by KINOMEscan analysis relative to control
# [21] = molecular target: Ribosomal protein S6 kinase alpha-1 (Homo sapiens) (UniProt Q15418); assay: Inhibition of human partial length wild type Rsk1 (M1/E388) expressed in bacterial system at 1 uM by KINOMEscan analysis relative to control
# [22] = molecular target: SRSF protein kinase 1 (Homo sapiens) (UniProt Q96SB4); assay: Inhibition of human full length wild type SRPK1 expressed in mammalian system at 1 uM by KINOMEscan analysis relative to control
# [23] = molecular target: PI3K p110 beta/p85 alpha (Homo sapiens) (UniProt P27986+P42338); assay: Inhibition of P13 kinase p110beta/p85alpha (unknown origin) at 1 uM relative to control; type: protein-complex assay
# Sequence of PI3K p110 beta/p85 alpha (Homo sapiens) (P27986 2-724 limits assumed): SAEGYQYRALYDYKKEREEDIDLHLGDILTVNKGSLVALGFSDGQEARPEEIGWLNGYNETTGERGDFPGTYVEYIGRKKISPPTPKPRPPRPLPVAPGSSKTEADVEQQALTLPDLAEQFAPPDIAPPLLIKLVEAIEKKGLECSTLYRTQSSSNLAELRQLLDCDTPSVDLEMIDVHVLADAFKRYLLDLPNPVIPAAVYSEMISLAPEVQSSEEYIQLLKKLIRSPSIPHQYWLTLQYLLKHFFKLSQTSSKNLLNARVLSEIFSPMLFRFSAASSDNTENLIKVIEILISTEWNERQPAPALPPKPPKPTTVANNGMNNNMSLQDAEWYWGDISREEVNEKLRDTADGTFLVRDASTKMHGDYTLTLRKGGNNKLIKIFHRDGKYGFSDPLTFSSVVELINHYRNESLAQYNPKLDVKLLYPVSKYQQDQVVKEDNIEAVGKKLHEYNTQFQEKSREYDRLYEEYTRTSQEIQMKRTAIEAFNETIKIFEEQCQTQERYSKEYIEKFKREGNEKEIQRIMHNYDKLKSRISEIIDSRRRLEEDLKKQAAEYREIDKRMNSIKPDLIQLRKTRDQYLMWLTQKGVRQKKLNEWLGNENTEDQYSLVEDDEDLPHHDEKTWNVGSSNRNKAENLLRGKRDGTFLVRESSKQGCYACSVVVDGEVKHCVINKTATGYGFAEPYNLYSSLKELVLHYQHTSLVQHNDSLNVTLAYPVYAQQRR
# Sequence of PI3K p110 beta/p85 alpha (Homo sapiens) (P42338 whole entry partner): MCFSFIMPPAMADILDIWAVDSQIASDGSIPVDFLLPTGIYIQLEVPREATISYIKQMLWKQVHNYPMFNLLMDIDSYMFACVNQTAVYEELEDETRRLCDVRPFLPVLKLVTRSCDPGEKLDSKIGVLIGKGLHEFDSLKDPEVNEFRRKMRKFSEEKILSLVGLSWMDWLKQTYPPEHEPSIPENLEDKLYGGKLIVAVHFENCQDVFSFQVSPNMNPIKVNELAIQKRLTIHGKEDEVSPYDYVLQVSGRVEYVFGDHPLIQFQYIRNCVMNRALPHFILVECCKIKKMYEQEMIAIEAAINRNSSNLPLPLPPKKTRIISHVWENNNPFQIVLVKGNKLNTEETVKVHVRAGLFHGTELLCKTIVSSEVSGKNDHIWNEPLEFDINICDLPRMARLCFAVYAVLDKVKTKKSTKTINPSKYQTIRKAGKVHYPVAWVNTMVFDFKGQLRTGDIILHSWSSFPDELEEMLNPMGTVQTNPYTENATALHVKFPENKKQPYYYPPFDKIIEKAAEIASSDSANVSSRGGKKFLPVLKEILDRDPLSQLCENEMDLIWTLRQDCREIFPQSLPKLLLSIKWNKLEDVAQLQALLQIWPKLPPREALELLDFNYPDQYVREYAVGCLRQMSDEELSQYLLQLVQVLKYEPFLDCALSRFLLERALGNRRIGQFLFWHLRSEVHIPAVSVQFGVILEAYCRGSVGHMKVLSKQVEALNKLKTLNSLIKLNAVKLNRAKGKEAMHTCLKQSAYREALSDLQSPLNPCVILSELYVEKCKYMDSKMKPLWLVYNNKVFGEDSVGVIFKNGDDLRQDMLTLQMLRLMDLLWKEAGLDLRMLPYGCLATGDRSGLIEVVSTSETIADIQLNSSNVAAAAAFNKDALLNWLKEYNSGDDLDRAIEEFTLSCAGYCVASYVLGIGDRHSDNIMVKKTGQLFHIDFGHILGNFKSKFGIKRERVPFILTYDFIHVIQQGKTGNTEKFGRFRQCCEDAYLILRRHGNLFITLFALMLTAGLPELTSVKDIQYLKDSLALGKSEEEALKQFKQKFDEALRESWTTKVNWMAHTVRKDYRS
# [24] = AUClast in ICR mouse at 5 mg/kg, iv single dose measured upto 24 hrs; type: ADME, organism-based; parameters: dose 5 mg/kg, time < 24 hrs, route iv; details: in vivo
# [25] = Observed clearance in ICR mouse at 5 mg/kg, iv single dose measured upto 24 hrs; type: ADME, organism-based; details: in vivo
# [26] = Observed MRT (infinitive) in ICR mouse at 5 mg/kg, iv single dose measured upto 24 hrs; type: ADME, organism-based; details: in vivo
# [27] = AUClast in ICR mouse at 5 mg/kg, sc single dose measured upto 24 hrs; type: ADME, organism-based; parameters: time < 24 hrs, dose 5 mg/kg, route sc; details: in vivo
# [28] = Tmax in ICR mouse at 5 mg/kg, sc single dose measured upto 24 hrs; type: ADME, organism-based; details: in vivo
# [29] = Observed MRT (infinitive) in ICR mouse at 5 mg/kg, sc single dose measured upto 24 hrs; type: ADME, organism-based; details: in vivo
# MDCK = assay: Inhibition of cyst formation in in-vitro MDCK cyst model assessed as decrease in cyst diameter at 1 to 3 uM measured for 4 to […]; type: functional, cell-based; details: Canis lupus familiaris, dose 1-3 µM, time lower 4.0 hrs
# Mus musculus [30] = assay: Reduction in cyst formation in kidney-specific Pkd1 knockout ADPKD mouse model assessed as renal cystic index at 5 mg/kg by HE staining analysis; type: functional, organism-based
# Mus musculus [31] = assay: Reduction in cyst size in kidney-specific Pkd1 knockout ADPKD mouse model assessed as renal cystic index at 5 mg/kg by HE staining analysis; type: functional, organism-based
# [32] = Toxicity in wild type mouse assessed as kidney size at 5 mg/kg; type: organism-based; details: in vivo
# Mus musculus [33] = assay: Reduction in AMPD3 protein expression in kidney-specific Pkd1 knockout ADPKD mouse model assessed as protein expression in cyst-lining epithelial cell at 5 mg/kg by Western blot analysis; type: functional, organism-based
# [34] = Bioavailability in ICR mouse at 5 mg/kg, sc single dose measured upto 24 hrs; type: ADME, organism-based; details: in vivo
# Sequence of Cyclin-dependent kinase 7 (P50613 whole entry): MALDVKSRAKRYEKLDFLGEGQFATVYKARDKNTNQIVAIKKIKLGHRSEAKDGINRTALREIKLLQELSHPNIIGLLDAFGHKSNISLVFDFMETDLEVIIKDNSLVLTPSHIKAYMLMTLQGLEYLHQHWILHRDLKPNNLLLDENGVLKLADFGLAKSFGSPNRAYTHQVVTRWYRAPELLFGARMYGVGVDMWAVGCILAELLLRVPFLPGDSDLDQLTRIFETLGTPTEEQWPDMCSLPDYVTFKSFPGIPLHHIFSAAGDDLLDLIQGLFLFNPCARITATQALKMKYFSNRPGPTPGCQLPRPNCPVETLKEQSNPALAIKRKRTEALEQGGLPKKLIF
smiles,measurement,setting,value
C=CC(=O)Nc1ccc(C(=O)Nc2n[nH]c3ccc(-c4cncc(NC[C@@H](O)c5ccccc5)c4)cc23)cc1,IC50,[1],4 nM
same,IC50,[2],823 nM
same,IC50,[3],3.37 µM
same,IC50,[4],> 10 µM
same,IC50,[5],950 nM
same,IC50,[6],> 10 µM
same,inhibition,[7],76%
same,inhibition,[8],68%
same,inhibition,[9],62%
same,inhibition,[10],< 50%
same,inhibition,[11],< 50%
same,inhibition,[12],< 50%
same,inhibition,[13],< 50%
same,inhibition,[14],< 50%
same,inhibition,[15],< 50%
same,inhibition,[16],< 50%
same,inhibition,[17],< 50%
same,inhibition,[18],< 50%
same,inhibition,[19],< 50%
same,inhibition,[20],< 50%
same,inhibition,Homo sapiens,< 50%
same,inhibition,[21],< 50%
same,inhibition,[22],< 50%
same,inhibition,[23],< 50%
same,AUC(0-t) at 24 h,[24],26900 ng·h/mL
same,clearance,[25],3 mL/min/kg
same,MRT inf,[26],10 h
same,AUC(0-t) at 24 h,[27],17300 ng·h/mL
same,Tmax,[28],1 h
same,MRT inf,[29],5 h
same,inhibition,MDCK,Dose-Dependent Effect
same,Activity,Mus musculus [30],Active
same,Activity,Mus musculus [31],Active
same,Activity,[32],Non-Toxic
same,Activity,Mus musculus [33],Active
same,bioavailability,[34],64.2%

# Source: ChEMBL document CHEMBL5236590, “Discovery of Novel N-(5-(Pyridin-3-yl)-1H-indazol-3-yl)benzamide Derivatives as Potent Cyclin-Dependent Kinase 7 Inhibitors for the Treatment of Autosomal Dominant Polycystic Kidney Disease” (J Med Chem, 2022)
